Patent US11541107B2, “Peptides and T cells for use in immunotherapeutic treatment of various cancers” (Immatics Biotechnologies GmbH, priority 2015, dated 2023)

Tested on: HLA-A*24
Test: MHC binding assay, UV-ligand exchange with beta2m ELISA, HLA-A*24
Design: species or system human
Details: binding to HLA-A*24 ranged by peptide exchange yield (UV-ligand exchange, beta2m ELISA)
Description: Candidate peptides for T cell based therapies according to the present invention were further tested for their MHC binding capacity (affinity). The individual peptide-MHC complexes were produced by UV-ligand exchange, where a UV-sensitive peptide is cleaved upon UV-irradiation, and exchanged with the peptide of interest as analyzed. Only peptide candidates that can effectively bind and stabilize the peptide-receptive MHC molecules prevent dissociation of the MHC complexes. To determine the yield of the exchange reaction, an ELISA was performed based on the detection of the light chain (ß2 m) of stabilized MHC complexes. The assay was performed as generally described in Rodenko et al. (Rodenko et al., 2006).
96 well MAXISorp plates (NUNC) were coated over night with 2 ug/ml streptavidin in PBS at room temperature, washed 4× and blocked for 1 h at 37° C. in 2% BSA containing blocking buffer. […] Peptide-MHC monomers of the UV-exchange reaction were diluted 100 fold in blocking buffer. Samples were incubated for 1 h at 37° C., washed four times, incubated with 2 ug/ml HRP conjugated anti-β2 m for 1h at 37° C., washed again and detected with TMB solution that is stopped with […]. Absorption was measured at 450 nm. Candidate peptides that show a high exchange yield (preferably higher than 50%, most preferred higher than 75%) are generally preferred for a generation and production of antibodies or fragments thereof, and/or T cell receptors or fragments thereof, as they show sufficient avidity to the MHC molecules and prevent dissociation of the MHC complexes.

Substance	Peptide exchange
205 (VYPVVLNQI; listed as Homo sapiens) [compound 205]	+++ (50%-75% = +++)
206 (NYLDVATFL; listed as Homo sapiens) [compound 206]	++++ (>=75% = ++++)
207 (LYSDAFKFIVF; listed as Homo sapiens) [compound 207]	+++ (50%-75% = +++)
208 (TYLEKIDGF; listed as Homo sapiens) [compound 208]	++++ (>=75% = ++++)
209 (AFIETPIPLF; listed as Homo sapiens) [compound 209]	++++ (>=75% = ++++)
210 (IYAGVGEFSF; listed as Homo sapiens) [compound 210]	++++ (>=75% = ++++)
211 (VFKSEGAYF; listed as Homo sapiens) [compound 211]	++++ (>=75% = ++++)
212 (SYAPPSEDLF; listed as Homo sapiens) [compound 212]	++ (20%-49% = ++)
213 (SYAPPSEDLFL; listed as Homo sapiens) [compound 213]	++ (20%-49% = ++)
214 (KYLMELTLI; listed as Homo sapiens) [compound 214]	+++ (50%-75% = +++)
215 (SYVASFFLL; listed as Homo sapiens) [compound 215]	++ (20%-49% = ++)
216 (FYVNVKEQF; listed as Homo sapiens) [compound 216]	+++ (50%-75% = +++)
217 (IYISNSIYF; listed as Homo sapiens) [compound 217]	++++ (>=75% = ++++)
218 (LYSELNKWSF; listed as Homo sapiens) [compound 218]	+++ (50%-75% = +++)
219 (SYLKAVFNL; listed as Homo sapiens) [compound 219]	+++ (50%-75% = +++)
220 (SYSEIKDFL; listed as Homo sapiens) [compound 220]	++++ (>=75% = ++++)

Substance	Peptide exchange
221 (KYIGNLDLL; listed as Homo sapiens) [compound 221]	++++ (>=75% = ++++)
223 (TFITQSPLL; listed as Homo sapiens) [compound 223]	++++ (>=75% = ++++)
224 (PYFFANQEF; listed as Homo sapiens) [compound 224]	+++ (50%-75% = +++)
225 (TYTNTLERL; listed as Homo sapiens) [compound 225]	+++ (50%-75% = +++)
226 (MYLKLVQLF; listed as Homo sapiens) [compound 226]	++ (20%-49% = ++)
227 (IYRFITERF; listed as Homo sapiens) [compound 227]	+++ (50%-75% = +++)
228 (IYQYVADNF; listed as Homo sapiens) [compound 228]	+++ (50%-75% = +++)
229 (IYQFVADSF; listed as Homo sapiens) [compound 229]	+++ (50%-75% = +++)
230 (TYGMVMVTF; listed as Homo sapiens) [compound 230]	+++ (50%-75% = +++)
231 (AFADVSVKF; listed as Homo sapiens) [compound 231]	++++ (>=75% = ++++)
232 (YYLSDSPLL; listed as Homo sapiens) [compound 232]	+++ (50%-75% = +++)
233 (QYLTAAALHNL; listed as Homo sapiens) [compound 233]	+++ (50%-75% = +++)
234 (SYLPAIWLL; listed as Homo sapiens) [compound 234]	+++ (50%-75% = +++)
235 (VYKDSIYYI; listed as Homo sapiens) [compound 235]	+++ (50%-75% = +++)
236 (VYLPKIPSW; listed as Homo sapiens) [compound 236]	+++ (50%-75% = +++)
237 (KYVGQLAVL; listed as Homo sapiens) [compound 237]	+++ (50%-75% = +++)
